The record followed here is US10501479B2, “Benzenesulfonyl-asymmetric ureas and medical uses thereof” (HELSINN HEALTHCARE SA, priority 2016, dated 2019).

T1 sequence (Q92847 whole entry): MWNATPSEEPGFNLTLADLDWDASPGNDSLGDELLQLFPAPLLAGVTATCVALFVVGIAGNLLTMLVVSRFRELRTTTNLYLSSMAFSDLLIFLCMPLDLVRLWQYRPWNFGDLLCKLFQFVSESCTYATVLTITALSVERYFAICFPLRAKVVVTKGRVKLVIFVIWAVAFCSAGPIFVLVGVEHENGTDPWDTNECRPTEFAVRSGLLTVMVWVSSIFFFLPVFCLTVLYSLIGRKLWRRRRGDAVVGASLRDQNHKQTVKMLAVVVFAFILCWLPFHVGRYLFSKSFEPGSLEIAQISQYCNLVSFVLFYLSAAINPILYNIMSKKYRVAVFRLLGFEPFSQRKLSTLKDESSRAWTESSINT

One assay addresses T1, recombinant human ghrelin receptor (HEK293/GRLN) (Homo sapiens, UniProt Q92847).
T1 construct: expressed in transfected cells
The experiment in a line: Ghrelin inverse agonist potency (EC50) with IP-1 (IP-One HTRF) assay. The conditions noted are these: inverse agonist potency, IP-1 assay; read-out: EC50 (Activity). The assay is classed as cell-based. How it is done:
Evaluation of Ghrelin Inverse Agonist Potency (EC50) with IP-1 Assay:
HEK293 cells stably expressing recombinant human ghrelin receptor (HEK293/GRLN) were used in the IP-One HTRF assay. One day before the test, cells were seeded at a density of 1.5×10^4/well in a Matrigel® coated 384-well plate with 30 μL of complete Dulbecco's Modified Eagle's Medium and incubated at 37° C. in 5% CO2 for 18-22 hours. On the test day, the medium was removed by centrifugation at 600 rpm for 30 seconds, and 20 μL of stimulation buffer containing 1x tested compound was added with Bravo (Agilent technologies). The plate was then incubated at 37° C. 5% CO2 for 1 hour. After the incubation, 5 μL of IP1-d2 and 5 μL of Tb-Cryp were added to all wells using multidrop Combi(Thermo). After additional incubation at room temperature for 1 hour, the plates were read on Envision with 620 and 665 (Perkin Elmer).
In the case of `C[C@H](NC(=O)Nc1ccc(S(=O)(=O)Nc2ccc(CC(C)(C)N)cc2)cc1)c1ccc(C#CC2CC2)c(Cl)c1Cl` [H0907, (S)-N-(4-(2-amino-2-methylpropyl)phenyl)-4-(3-(1-(2,3-dichloro-4-(cyclopropylethynyl)phenyl)ethyl)ureido)benzenesulfonamide], the EC50 stood at 1610 nM. With `COc1ccc([C@H](C)NC(=O)Nc2ccc(S(=O)(=O)Nc3ccc(CCN)cc3)cc2)c(Cl)c1Cl` [H0951, (S)-N-(4-(2-aminoethyl)phenyl)-4-(3-(1-(2,3-dichloro-4-methoxyphenyl)ethyl)ureido) benzenesulfonamide], the EC50 was 32.7 nM. Take `CCNC(=O)Nc1ccc(S(=O)(=O)Nc2ccc(CC(C)(C)N)cc2)cc1` [H0994, N-(4-(2-amino-2-methylpropyl)phenyl)-4-(3-ethylureido)benzenesulfonamide]: the EC50 stood at 1430 nM. On the same count and under the same terms, next, `COc1ccc(CS(=O)(=O)c2ccc(NC(=O)N[C@@H](C)c3cccc(Cl)c3Cl)cc2)cc1` [H1083, (S)-1-(1-(2,3-dichlorophenyl)ethyl)-3-(4-((4-methoxybenzyl)sulfonyl)phenyl)urea]: 1180 nM; `C[C@H](NC(=O)Nc1ccc(S(=O)(=O)Cc2ccc3c(c2)CCOC3)cc1)c1cccc(Cl)c1Cl` [H1092, (S)-1-(1-(2,3-dichlorophenyl)ethyl)-3-(4-((isochroman-6-ylmethyl)sulfonyl)phenyl)urea]: 578 nM.

Another assay deals with T2, GHSR-1a (HEK293/GHSR1a cell line) (Homo sapiens, UniProt Q92847).
T2 construct: expressed in transfected cells; host or cells: HEK293/GHSR1a cell line
T2 sequence (Q92847 whole entry): as above
In words: Ghrelin antagonist potency (IC50) with calcium FLIPR assay, ghrelin 10 nM. The conditions noted are these: HEK293/GHSR1a, ghrelin 10 nM, read-out: Activity IC50 (ghrelin antagonist potency). The assay is classed as cell-based. How it is done: Evaluation of Ghrelin Agonist (EC50) and Antagonist Potency (IC50) with Calcium FLIPR Assay:
The intracellular calcium assay was carried out in a 384-well format FLIPR™ (Molecular Device) HEK293/GHSR1a cell line. Cells were seeded 24 hr prior to the experiments at an optimal density per well. Preincubation with selected calcium dye lasted for 30-60 min at room temperature or 37° C. Test compounds, dissolved in DMSO, were added at the appropriate time and incubated for 15 min followed by the addition of ghrelin with FlexStation or FLIPR. Relative fluorescence was monitored by the FLIPR™ Molecular Device. EC50 and IC50 values were estimated from dose-response data using GraphPad Prism software. To check for GHSR-1a agonism, the compound was added at t=20 sec. and the calcium response was followed for 2 minutes. To check for GHSR-1a antagonism, the compound and Ghrelin (10 nM) were added to the cells at t=20 sec. and the calcium response was measured for 2 minutes. The potency of the antagonist was calculated by its ability to reduce the ghrelin response. Dose-response curves were made for relevant antagonists.
For the compound `CCc1ccc(Cl)c(C(=O)NC(=O)Nc2ccc(S(=O)(=O)Nc3ccc(CC(C)(C)N)cc3)cc2)c1` [H1254, N-((4-(N-(4-(2-amino-2-methylpropyl)phenyl)sulfamoyl)phenyl)carbamoyl)-2-chloro-5-ethylbenzamide], the IC50 was 17.2 nM. Take `CCc1ccc(Cl)c(C(=O)NC(=O)Nc2ccc(S(=O)(=O)Nc3ccc4c(c3)CNCC4)cc2)c1` [H1263, 2-chloro-5-ethyl-N-((4-(N-(1,2,3,4-tetrahydroisoquinolin-7-yl)sulfamoyl)phenyl)carbamoyl) benzamide]: the IC50 is 246 nM. As for `C[C@H](NC(=O)Nc1ccc2c(c1)C=C(c1ccc3c(c1)CNC3)S2(=O)=O)c1ccccc1` [H1270, (S)-1-(2-(isoindolin-5-yl)-1,1-dioxidobenzo[b]thiophen-5-yl)-3-(1-phenylethyl)urea], the IC50 came to 25.1 nM.

For the compound `COc1ccc(C(C)NC(=O)Nc2ccc3c(c2)CC(c2ccc4c(c2)CNC4)S3(=O)=O)cc1` (stereo not drawn) [H1297, 1-(2-(isoindolin-5-yl)-1,1-dioxido-2,3-dihydrobenzo[b]thiophen-5-yl)-3-(1-(4-methoxyphenyl)ethyl)urea], the concentration for half-maximal inhibition (IC50) is 23.1 nM. On to `CC(c1ccccc1)N1Cc2cc(S(=O)(=O)Cc3ccc4c(c3)CNC4)ccc2NC1=O` (stereo not drawn) [H1395, 6-((isoindolin-5-ylmethyl)sulfonyl)-3-(1-phenylethyl)-3,4-dihydroquinazolin-2(1H)-one], for which the IC50 amounted to 68.9 nM.

The assay is the same for the next values; noted with them: ghrelin antagonist potency, read-out: IC50 (Activity).
For the compound `C[C@H](NC(=O)Nc1ccc(S(=O)(=O)Nc2ccc(CC(C)(C)N)cc2)cc1)c1ccc(C#CC2CC2)c(Cl)c1Cl` [H0907, (S)-N-(4-(2-amino-2-methylpropyl)phenyl)-4-(3-(1-(2,3-dichloro-4-(cyclopropylethynyl)phenyl)ethyl)ureido)benzenesulfonamide], the IC50 was determined as 23.5 nM. The same measure, in the same setting: next, `COc1ccc([C@H](C)NC(=O)Nc2ccc(S(=O)(=O)Nc3ccc(CCN)cc3)cc2)c(Cl)c1Cl` [H0951, (S)-N-(4-(2-aminoethyl)phenyl)-4-(3-(1-(2,3-dichloro-4-methoxyphenyl)ethyl)ureido) benzenesulfonamide]: 83.8 nM; `C[C@H](NC(=O)Nc1ccc(S(=O)(=O)Nc2ccc(N)nc2)cc1)c1cccc(Cl)c1Cl` [H1126, (S)-N-(6-aminopyridin-3-yl)-4-(3-(1-(2,3-dichlorophenyl)ethyl)ureido) benzenesulfonamide]: 183 nM; `O=C(NCc1ccccc1)Nc1ccc(S(=O)(=O)Cc2ccc(CO)cc2)cc1` [H1131, 1-benzyl-3-(4-((4-(hydroxymethyl)benzyl)sulfonyl)phenyl)urea]: at least 30000 nM. Consider `COc1ccc(C(C)NC(=O)Nc2ccc(S(=O)(=O)Cc3ccc(CO)cc3)cc2)c2ccccc12` (stereo not drawn) [H1140, 1-(4-((4-(hydroxymethyl)benzyl)sulfonyl)phenyl)-3-(1-(4-methoxynaphthalen-1-yl)ethyl)urea], for which the IC50 is at least 30000 nM. On the same count and under the same terms, next, `COc1ccc(C(C)NC(=O)Nc2ccc(S(=O)(=O)Nc3ccc(CO)cc3)cc2)c2ccccc12` (stereo not drawn) [H1145, N-(4-(hydroxymethyl)phenyl)-4-(3-(1-(4-methoxynaphthalen-1-yl)ethyl)ureido) benzenesulfonamide]: at least 30000 nM. Consider `C[C@H](NC(=O)N(O)c1ccc(S(=O)(=O)Nc2ccc3c(c2)CNC3)cc1)c1cccc(Cl)c1Cl` [H1188, (S)-4-(3-(1-(2,3-dichlorophenyl)ethyl)-1-hydroxyureido)-N-(isoindolin-5-yl)benzenesulfonamide], for which the IC50 was 539 nM. For `CC(NC(=O)N(O)c1ccc(S(=O)(=O)Nc2ccc3c(c2)CNC3)cc1)c1ccccc1` (stereo not drawn) [H1199, 4-(1-hydroxy-3-(1-phenylethyl)ureido)-N-(isoindolin-5-yl)benzenesulfonamide], the IC50 was 75.7 nM. In the case of `O=C(NCc1cncs1)Nc1ccc(S(=O)(=O)Cc2ccc3c(c2)CNC3)cc1` [H1208, 1-(4-((isoindolin-5-ylmethyl)sulfonyl)phenyl)-3-(thiazol-5-ylmethyl)urea], the IC50 was above 30000 nM. For the compound `CC(NC(=O)N(C)c1ccc(S(=O)(=O)Cc2ccc3c(c2)CNC3)cc1)c1ccccc1` (stereo not drawn) [H1213, 1-(4-((isoindolin-5-ylmethyl)sulfonyl)phenyl)-1-methyl-3-(1-phenylethyl)urea], the IC50 worked out at 4350 nM. Still for that read-out and setting: then `O=C(NCc1cscn1)Nc1ccc(S(=O)(=O)Cc2ccc3c(c2)CNC3)cc1` [H1216, 1-(4-((isoindolin-5-ylmethyl)sulfonyl)phenyl)-3-(thiazol-4-ylmethyl)urea], with 8450 nM; and `C[C@H](NC(=O)Nc1ccc(S(=O)(=O)Cc2ccc(CO)cc2)cc1)c1ccccc1` [H1222, (S)-1-(4-((4-(hydroxymethyl)benzyl)sulfonyl)phenyl)-3-(1-phenylethyl)urea], with 3160 nM; and `C[C@H](NC(=O)Nc1ccc(S(=O)(=O)N2CCN(C)CC2)cc1)c1ccccc1` [H1225, (S)-1-(4-((4-methylpiperazin-1-yl)sulfonyl)phenyl)-3-(1-phenylethyl)urea], with 5900 nM. On the same count and under the same terms, next, `CN1Cc2ccc(CS(=O)(=O)c3ccc(NC(=O)NCC4CC4)cc3)cc2C1` [H1230, 1-(cyclopropylmethyl)-3-(4-(((2-methylisoindolin-5-yl)methyl)sulfonyl)phenyl)urea]: 6400 nM; `CC(NC(=O)Nc1ccc(S(=O)(=O)C(C)(C)c2ccc3c(c2)CN(Cc2ccccc2)C3)cc1)c1ccccc1` (stereo not drawn) [H1231, 1-(4-((2-(2-benzylisoindolin-5-yl)propan-2-yl)sulfonyl)phenyl)-3-(1-phenylethyl)urea]: above 30000 nM; `C[C@H](NC(=O)Nc1ccc(S(=O)(=O)C2CCN(C)CC2)cc1)c1ccccc1` [H1237, (S)-1-(4-((1-methylpiperidin-4-yl)sulfonyl)phenyl)-3-(1-phenylethyl)urea]: above 30000 nM. The same measure, in the same setting: then `C[C@H](NC(=O)Nc1ccc(S(=O)(=O)CC2CCN(C)CC2)cc1)c1ccccc1` [H1238, (S)-1-(4-(((1-methylpiperidin-4-yl)methyl)sulfonyl)phenyl)-3-(1-phenylethyl)urea], with above 30000 nM; and `C[C@H](NC(=O)Nc1ccc(S(=O)(=O)NC2CCN(C)CC2)cc1)c1ccccc1` [H1239, (S)-N-(1-methylpiperidin-4-yl)-4-(3-(1-phenylethyl)ureido) benzenesulfonamide], with above 30000 nM. Regarding `CCc1ccc(Cl)c(C(=O)NC(=O)Nc2ccc(S(=O)(=O)Cc3ccc4c(c3)CNC4)cc2)c1` [H1248, 2-chloro-5-ethyl-N-((4-((isoindolin-5-ylmethyl)sulfonyl)phenyl)carbamoyl)benzamide], the IC50 came out at 283 nM. Same read-out and setting: then `O=C(NC(=O)c1cc(N2CCOCC2)ccc1Cl)Nc1ccc(S(=O)(=O)Nc2ccc3c(c2)CNC3)cc1` [H1250, 2-chloro-N-((4-((isoindolin-5-yl)sulfamoyl)phenyl)carbamoyl)-5-morpholinobenzamide], with 1370 nM; and `CCOc1ccc(Cl)c(C(=O)NC(=O)Nc2ccc(S(=O)(=O)Cc3ccc4c(c3)CNC4)cc2)c1` [H1251, 2-chloro-5-ethoxy-N-((4-((isoindolin-5-ylmethyl)sulfonyl)phenyl)carbamoyl)benzamide], with 89.6 nM.

In the case of `CCOc1ccc(Cl)c(C(=O)NC(=O)Nc2ccc(S(=O)(=O)Nc3ccc4c(c3)CNC4)cc2)c1` [H1252, 2-chloro-5-ethoxy-N-((4-(N-(isoindolin-5-yl)sulfamoyl)phenyl)carbamoyl) benzamide], the IC50 was found to be 440 nM. Still for that read-out and setting: next, `CCc1ccc(Cl)c(C(=O)NC(=O)Nc2ccc(S(=O)(=O)Cc3ccc(CC(C)(C)N)cc3)cc2)c1` [H1253, N-((4-((4-(2-amino-2-methylpropyl)benzyl)sulfonyl)phenyl)carbamoyl)-2-chloro-5-ethylbenzamide]: 86.8 nM.
